Measurements published in ChEMBL document CHEMBL1201862, “PubChem BioAssay data set” (2004).
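Where inhibition never reached the appropriate level, the endpoint shown equals the highest concentration tested. Otherwise, values were interpolated linearly from a five-concentration, 48-hour dose response in 96-well plates. GI50 marks 50% less growth.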 Active and inactive are the calls of the source. No stated cut-off is given here; in the data, active = GI50 up to about 1.1 µM and inactive = higher.

Assays:
Assay in all cases: inhibition of tumour cell growth, NCI panel, 48 h
786-0 = tested on: 786-0
MDA-MB-435 = tested on: MDA-MB-435
NCI/ADR-RES = tested on: NCI/ADR-RES
RXF 393 = tested on: RXF 393
OVCAR-8 = tested on: OVCAR-8
SNB-19 = tested on: SNB-19
HT-29 = tested on: HT-29
Hs-578T = tested on: Hs-578T
OVCAR-3 = tested on: OVCAR-3
HCT-15 = tested on: HCT-15
SF-268 = tested on: SF-268
RPMI-8226 = tested on: RPMI-8226
SK-MEL-28 = tested on: SK-MEL-28
IGROV-1 = tested on: IGROV-1
TK-10 = tested on: TK-10
HL-60 = tested on: HL-60
LOX IMVI = tested on: LOX IMVI
HOP-92 = tested on: HOP-92
NCI-H226 = tested on: NCI-H226
MDA-MB-231 = tested on: MDA-MB-231

| SMILES | GI50 (786-0) | GI50 (MDA-MB-435) | GI50 (NCI/ADR-RES) | GI50 (RXF 393) | GI50 (OVCAR-8) | GI50 (SNB-19) | GI50 (HT-29) | GI50 (Hs-578T) | GI50 (OVCAR-3) | GI50 (HCT-15) [µM] | GI50 (SF-268) | GI50 (RPMI-8226) | GI50 (SK-MEL-28) | GI50 (IGROV-1) | GI50 (TK-10) | GI50 (HL-60) | GI50 (LOX IMVI) | GI50 (HOP-92) | GI50 (NCI-H226) | GI50 (MDA-MB-231) |
| --- | --- | --- | --- | --- | --- | --- | --- | --- | --- | --- | --- | --- | --- | --- | --- | --- | --- | --- | --- | --- |
| CC(C)=CCC[C@](C)(O)[C@H]1CC[C@]2(C)[C@@H]1[C@H](O)C[C@@H]1[C@@]3(C)CC[C@H](O[C@@H]4O[C@H](CO)[C@@H](O)[C@H](O)[C@H]4O)C(C)(C)[C@@H]3CC[C@]12C [GINSENOSIDE RH2] | 20.2 µM (inactive) | 18.2 µM (inactive) | 25.1 µM (inactive) | 17 µM (inactive) | 17.9 µM (inactive) | 20 µM (inactive) | 15.5 µM (inactive) | 21.9 µM (inactive) | 17.9 µM (inactive) | 17.5 | 15.8 µM (inactive) | 19.1 µM (inactive) | 19.9 µM (inactive) | 16.3 µM (inactive) | 21.4 µM (inactive) | 21 µM (inactive) | 29 µM (inactive) | 18.7 µM (inactive) | 17.6 µM (inactive) | 18.2 µM (inactive) |
| O=C(CCBr)N1CCN(C(=O)CCBr)CC1 [PIPOBROMAN] | 57.9 µM (inactive) | 105 µM (inactive) | 81.8 µM (inactive) | 68.2 µM (inactive) | 86.3 µM (inactive) | 80.2 µM (inactive) | 103 µM (inactive) | 190 µM (inactive) | 96.6 µM (inactive) | 83.8 | 39.3 µM (inactive) | 98.4 µM (inactive) | 99.8 µM (inactive) | 97.5 µM (inactive) | 244 µM (inactive) | 13.7 µM (inactive) | 48.3 µM (inactive) | 126 µM (inactive) | 84.9 µM (inactive) | 113 µM (inactive) |
| CCC1=C(CC2NCCc3cc(OC)c(OC)cc32)CC2c3ccccc3CCN2C1 (stereo not given) | 14 µM (inactive) | 13.1 µM (inactive) | 29.6 µM (inactive) | 19.8 µM (inactive) | 37.5 µM (inactive) | 36.9 µM (inactive) | 5.56 µM (inactive) | 15.4 µM (inactive) | 33.4 µM (inactive) | 37.9 | 31.5 µM (inactive) | 13.8 µM (inactive) | 13.9 µM (inactive) | 21.2 µM (inactive) | 26.7 µM (inactive) | 9.06 µM (inactive) | 13.5 µM (inactive) | 12.8 µM (inactive) | 19 µM (inactive) | 16.8 µM (inactive) |
| CC[C@@]1(O)C(=O)OCc2c1cc1n(c2=O)Cc2c-1nc1ccc(N)cc1c2CC[Si](C)(C)C | < 0.01 µM (active) | < 0.01 µM (active) | < 0.01 µM (active) | < 0.01 µM (active) | < 0.01 µM (active) | < 0.01 µM (active) | < 0.01 µM (active) | 0.134 µM (active) | < 0.0188 µM (active) | 0.0153 | < 0.01 µM (active) | < 0.01 µM (active) | 0.0227 µM (active) | < 0.01 µM (active) | 0.051 µM (active) | < 0.01 µM (active) | < 0.01 µM (active) | < 0.025 µM (active) | < 0.01 µM (active) | < 0.0363 µM (active) |
| O=S(=O)(CC(O)C(Cl)(Cl)Cl)NNc1ccccc1 (stereo not given) | > 100 µM (inactive) | > 100 µM (inactive) | > 100 µM (inactive) | > 100 µM (inactive) | > 100 µM (inactive) | > 100 µM (inactive) | > 100 µM (inactive) | > 100 µM (inactive) | > 100 µM (inactive) | 72.1 | > 100 µM (inactive) | > 100 µM (inactive) | > 100 µM (inactive) | > 100 µM (inactive) | > 100 µM (inactive) | 47.6 µM (inactive) | > 100 µM (inactive) | > 100 µM (inactive) | > 100 µM (inactive) | > 100 µM (inactive) |
| COc1cc(C2c3cc4c(cc3OC(N3CCOCC3)C2C)OCO4)cc(OC)c1OC(C)=O (stereo not given) | 15.8 µM (inactive) | 2.46 µM (inactive) | 4.69 µM (inactive) | 11.6 µM (inactive) | 26 µM (inactive) | 15.5 µM (inactive) | 11.5 µM (inactive) | 2.2 µM (inactive) | 8.07 µM (inactive) | 15 | 39.3 µM (inactive) | 26.3 µM (inactive) | > 42.1 µM (inactive) | 14.2 µM (inactive) | 30.7 µM (inactive) | 4.65 µM (inactive) | 23.6 µM (inactive) | 23.9 µM (inactive) | 17.7 µM (inactive) | 18 µM (inactive) |
| CCCNC1=C2C[C@@H](C)C[C@@H](OC)[C@@H](OC(=O)CCCN)[C@H](C)/C=C(\C)[C@@H](OC(N)=O)[C@H](OC)/C=C\C=C(/C)C(=O)NC(=CC1=O)C2=O | 20.8 µM (inactive) | 13 µM (inactive) | 28.8 µM (inactive) | 11.8 µM (inactive) | 20.7 µM (inactive) | 14.6 µM (inactive) | 7.05 µM (inactive) | 25.6 µM (inactive) | 8.61 µM (inactive) | 21.5 | 15.3 µM (inactive) | 5.94 µM (inactive) | 17.6 µM (inactive) | 16.1 µM (inactive) | 17.9 µM (inactive) | 2.13 µM (inactive) | 16 µM (inactive) | 12.7 µM (inactive) | 18.5 µM (inactive) | 14.1 µM (inactive) |
| O=S(=O)(c1ccc2ccccc2c1)N1CCN(S(=O)(=O)c2ccc3ccccc3c2)CC1 | > 100 µM (inactive) | > 100 µM (inactive) | > 100 µM (inactive) | > 100 µM (inactive) | 93.1 µM (inactive) | 69.7 µM (inactive) | > 100 µM (inactive) | 31 µM (inactive) | 36 µM (inactive) | > 100 | > 100 µM (inactive) | > 100 µM (inactive) | > 100 µM (inactive) | > 100 µM (inactive) | > 100 µM (inactive) | > 100 µM (inactive) | > 100 µM (inactive) | 34.6 µM (inactive) | > 100 µM (inactive) | > 100 µM (inactive) |
| CCCCCCCCCCc1c2nc(c(CCCCCCCCCC)c3ccc([nH]3)c(CCCCCCCCCC)c3nc(c(CCCCCCCCCC)c4ccc1[nH]4)C=C3)C=C2 | > 100 µM (inactive) | > 100 µM (inactive) | > 100 µM (inactive) | > 100 µM (inactive) | > 100 µM (inactive) | > 100 µM (inactive) | > 100 µM (inactive) | 30 µM (inactive) | > 100 µM (inactive) | > 100 | > 100 µM (inactive) | > 100 µM (inactive) | > 100 µM (inactive) | > 100 µM (inactive) | > 100 µM (inactive) | > 100 µM (inactive) | > 100 µM (inactive) | > 100 µM (inactive) | > 100 µM (inactive) | > 100 µM (inactive) |
| O=C1C=CC(=O)c2c1ccc1c3ccccc3n(-c3cccc([N+](=O)[O-])c3)c21 | 1.91 µM (inactive) | 2.05 µM (inactive) | > 5.58 µM (inactive) | 2.38 µM (inactive) | 2.83 µM (inactive) | > 10 µM (inactive) | > 10 µM (inactive) | 3.76 µM (inactive) | 2.13 µM (inactive) | 2.59 | 5.66 µM (inactive) | 1 µM (active) | 2.84 µM (inactive) | 5.81 µM (inactive) | 2.24 µM (inactive) | 0.474 µM (active) | > 10 µM (inactive) | 2.09 µM (inactive) | > 10 µM (inactive) | 2.72 µM (inactive) |
| OCCO[P+]1(OCCO)n2c3ccc2C(c2ccccc2)=C2C=CC(=N2)C(c2ccccc2)=c2ccc(n21)=C(c1ccccc1)C1=NC(=C3c2ccccc2)C=C1 | 0.0764 µM (active) | 0.0296 µM (active) | 3.28 µM (inactive) | 0.182 µM (active) | 0.0767 µM (active) | 0.0133 µM (active) | 0.0281 µM (active) | 0.0237 µM (active) | 0.0218 µM (active) | 1.16 | 0.0263 µM (active) | < 0.01 µM (active) | 0.0408 µM (active) | 0.022 µM (active) | 0.119 µM (active) | 0.0152 µM (active) | 0.022 µM (active) | 0.0382 µM (active) | 0.0579 µM (active) | 0.042 µM (active) |
| CCOC(=O)c1c(N2CCCC2)ncn(C)c1=S | > 100 µM (inactive) | > 100 µM (inactive) | > 100 µM (inactive) | > 100 µM (inactive) | > 100 µM (inactive) | > 100 µM (inactive) | > 100 µM (inactive) | > 100 µM (inactive) | > 100 µM (inactive) | > 100 | > 100 µM (inactive) | > 100 µM (inactive) | > 100 µM (inactive) | > 100 µM (inactive) | > 100 µM (inactive) | > 100 µM (inactive) | > 100 µM (inactive) | 93.3 µM (inactive) | > 100 µM (inactive) | > 100 µM (inactive) |
| O=C1NC(O)c2cc3ccccc3cc2O1 (stereo not given) | > 100 µM (inactive) | 51.8 µM (inactive) | 51.4 µM (inactive) | > 100 µM (inactive) | 39.2 µM (inactive) | 60 µM (inactive) | > 100 µM (inactive) | 37.1 µM (inactive) | 26.4 µM (inactive) | 19.1 | 61.7 µM (inactive) | 38.5 µM (inactive) | 69.8 µM (inactive) | 69.5 µM (inactive) | > 100 µM (inactive) | 28.4 µM (inactive) | 46.6 µM (inactive) | 25.6 µM (inactive) | > 100 µM (inactive) | 34.4 µM (inactive) |
| COc1cc(O)c2c(O)c3c(c4c2c1[C@]1(C4)C(C)=CCCC1(C)C)[C@H](O)[C@@]1(O)CC(O)=C(C(N)=O)C(=O)[C@@]1(O)C3=O | 0.247 µM (active) | 0.0667 µM (active) | 0.345 µM (active) | 0.459 µM (active) | 0.113 µM (active) | 0.42 µM (active) | 0.0615 µM (active) | 0.147 µM (active) | 0.228 µM (active) | 0.164 | 0.269 µM (active) | 0.0612 µM (active) | 0.873 µM (active) | 0.643 µM (active) | 0.189 µM (active) | 0.164 µM (active) | 0.305 µM (active) | 0.362 µM (active) | 0.239 µM (active) | 0.259 µM (active) |
